This is an account of results in patent US9714247B2, “Multiple kinase pathway inhibitors” (Mannkind Corporation, priority 2012, dated 2017).

Where two headings read alike, the source gives them in different places.

The test system of assay [1] is DoHH2. The experiment in a line: CellTiter-Glo proliferation/viability assay. The class given is cell-based, human. To be noted: Homo sapiens, DOHH-2. In general terms: In ATP-based viability assays light output follows the ATP content of the culture.
Assay [2] concerns Ramos. The experiment in a line: CellTiter-Glo proliferation/viability assay. To be noted: Homo sapiens, Ramos, read-out: Ramos EC50. Format: cell-based, human.
For assay [3], the system named is DoHH2. In words: Apoptosis by flow cytometry (Annexin V / 7AAD). Format: cell-based, human. To be noted: Table 6; for Percent Apoptosis at 2 uM: DOHH2, 2 uM; for Percent Apoptosis at 5 uM: DOHH2, 5 uM. From the text: Activation of Tec family kinases including BTK, and/or Src kinase family members, regulates cell survival and cell death in normal B cells, lymphomas, and solid tumors. Apoptosis is a programmed cell death characterized by specific changes in cell morphology. […] Staurosporine was used as a positive control for apoptosis. […] Table 6 illustrates that several amino naphthyridinones induce significant apoptosis in DoHH2 cells.
On the technique in general: In flow cytometry, cells or beads pass a laser one at a time.

The subject of assay [4] is DoHH2 cells. To be noted: treated 24 hours.
In assay [5] the target is T1, Src (Homo sapiens (Human), UniProt P12931). The experiment in a line: biochemical.
T1 sequence (P12931 whole entry, looked up): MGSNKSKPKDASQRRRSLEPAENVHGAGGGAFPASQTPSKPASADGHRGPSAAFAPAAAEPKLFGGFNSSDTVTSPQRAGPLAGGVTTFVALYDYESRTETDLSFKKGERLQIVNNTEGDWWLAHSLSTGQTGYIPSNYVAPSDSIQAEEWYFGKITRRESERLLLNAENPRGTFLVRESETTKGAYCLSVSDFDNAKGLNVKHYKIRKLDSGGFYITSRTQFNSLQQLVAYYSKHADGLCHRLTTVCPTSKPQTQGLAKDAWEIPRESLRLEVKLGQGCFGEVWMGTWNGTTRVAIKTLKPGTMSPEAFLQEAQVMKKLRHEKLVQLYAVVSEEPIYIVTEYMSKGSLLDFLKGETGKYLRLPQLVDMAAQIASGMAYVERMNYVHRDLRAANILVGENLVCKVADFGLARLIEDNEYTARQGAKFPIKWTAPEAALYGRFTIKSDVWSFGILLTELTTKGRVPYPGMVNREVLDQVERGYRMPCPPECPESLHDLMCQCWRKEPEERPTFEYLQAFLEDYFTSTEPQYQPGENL
The target of assay [6] is T2, Lyn (Homo sapiens (Human), UniProt P07948). In words: biochemical.
T2 sequence (P07948 whole entry): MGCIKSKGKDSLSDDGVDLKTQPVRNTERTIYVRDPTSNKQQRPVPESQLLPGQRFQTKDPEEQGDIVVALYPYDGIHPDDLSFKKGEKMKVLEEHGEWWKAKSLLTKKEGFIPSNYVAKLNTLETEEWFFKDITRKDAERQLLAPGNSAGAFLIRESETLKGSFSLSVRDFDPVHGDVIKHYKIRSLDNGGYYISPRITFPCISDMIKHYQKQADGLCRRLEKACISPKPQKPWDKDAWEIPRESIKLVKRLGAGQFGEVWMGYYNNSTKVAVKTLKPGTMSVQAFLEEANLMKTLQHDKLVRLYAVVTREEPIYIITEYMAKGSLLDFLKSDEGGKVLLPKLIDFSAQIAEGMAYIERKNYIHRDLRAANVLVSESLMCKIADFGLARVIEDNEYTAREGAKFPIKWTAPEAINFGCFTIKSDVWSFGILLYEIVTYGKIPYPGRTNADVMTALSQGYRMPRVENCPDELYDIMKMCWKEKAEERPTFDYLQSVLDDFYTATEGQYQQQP
Assay [7] deals with BTK (Homo sapiens (Human), UniProt Q06187). To be noted: read-out: BTK IC50.
Sequence of BTK (Q06187 whole entry): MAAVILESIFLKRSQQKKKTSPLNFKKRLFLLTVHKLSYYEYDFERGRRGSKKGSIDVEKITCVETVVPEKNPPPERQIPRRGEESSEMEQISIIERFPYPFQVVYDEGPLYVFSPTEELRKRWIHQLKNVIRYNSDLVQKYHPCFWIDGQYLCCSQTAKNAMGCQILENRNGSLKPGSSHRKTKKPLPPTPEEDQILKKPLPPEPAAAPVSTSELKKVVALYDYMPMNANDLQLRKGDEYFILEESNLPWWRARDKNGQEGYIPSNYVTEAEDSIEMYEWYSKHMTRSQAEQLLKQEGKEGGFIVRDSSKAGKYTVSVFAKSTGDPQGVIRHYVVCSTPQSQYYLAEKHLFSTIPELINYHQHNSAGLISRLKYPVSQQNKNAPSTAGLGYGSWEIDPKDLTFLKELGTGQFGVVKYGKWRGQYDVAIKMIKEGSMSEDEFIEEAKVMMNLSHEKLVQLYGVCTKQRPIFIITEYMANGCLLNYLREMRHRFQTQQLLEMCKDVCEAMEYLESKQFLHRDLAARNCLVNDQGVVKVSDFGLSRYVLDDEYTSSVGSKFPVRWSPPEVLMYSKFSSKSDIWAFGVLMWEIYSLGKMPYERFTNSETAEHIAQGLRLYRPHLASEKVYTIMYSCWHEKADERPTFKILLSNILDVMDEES
The subject of assay [8] is PLCγ2 phosphorylation in Ramos cells. The experiment in a line: PLCγ2 phosphorylation by flow cytometry. The class given is cell-based, human. To be noted: Homo sapiens, flow cytometry; for inhibition at 0.3 µM: anti-phospho PLCγ2 (Tyr759), read-out: pPLCγ % inhibition. As to the method:
Ramos cells were cultured in RPMI 1640 media with 10% FBS and were starved overnight (18 h) in 1% FBS containing media and on the next day pretreated with inhibitor for 2 h before stimulation. Cells were stimulated to induce BTK network dependent signal transduction pathways using mouse anti-human IgM (final concentration 10 ug/ml; Invitrogen) antibodies and 3.3 mM H2O2 mixture for 2 minutes followed by F(Ab) fragment that cross-linked the anti-IgM antibody (final concentration 10 ug/ml), and 3.3 mM H2O2 for 8 minutes. Cell lysates were prepared in lysis buffer containing protease and phosphatase inhibitors, quantified using the BCA protein assay kit (Pierce) and used for Western blotting. Antibodies specifically targeted to the molecules of interest, PLCγ2 phosphorylated at Tyr1217 and total PLCγ2, (Cell Signaling Technology) were used in a standard Western blotting procedure.
PLCγ2 phosphorylation was also assessed by flow cytometry. Cells were similarly stimulated and following stimulation, Cytofix buffer (Becton Dickinson) was added, cells were centrifuged and the cell pellets incubated on ice with Phosflow perm buffer III (Becton Dickinson). These cell pellets were washed with Perm/Wash buffer (Becton Dickinson); resuspended and labeled for flow cytometry analysis in a staining mixture containing Perm/Wash buffer and PE-labeled anti-phosphoPCLγa2 (Tyr1217) antibody (Becton Dickinson). The samples were washed with Perm/Wash buffer and analyzed on a FACS Calibur flow cytometer using CellQuest Pro software. As mentioned for the Western blot experiments, phosphorylation of PLCγ2 at Tyr1217 along with Tyr753, Tyr759 and Tyr1197 is correlated with increased PLCγ2 activity. The readout for BTK network signaling was inhibition of phosphorylation of PLCγ2. Cells were gated to exclude dead or dying cells. Fluorescence signals from the antibody staining were plotted in logarithmic units and data was analyzed using Cellquest Pro software. […] An ED50 was calculated based on the geometric mean of fluorescence intensity observed for treatment for four different concentrations of the inhibitors (see Table 7 and FIG. 6). […] Thus treatment with amino naphthyridinones inhibits PLCγ2 phosphorylation consistent with inhibition of BTK and/or LYN activity.
Following stimulation, cells were prepared for analysis by flow cytometry as described above. In short, cells were fixed and permeabilized using Cytofix buffer, Phosflow perm buffer and Perm/Wash buffer (Becton Dickinson). The cells were stained with PE-labeled anti-phosphoPCLγ2 (Tyr759) antibody (Becton Dickinson) and analyzed on a FACS Calibur flow cytometer using CellQuest Pro software. […] Thus aminonaphthyridinones are useful for the indirect inhibition of PLCγ2 phosphorylation.

For assay [9], the system named is phosphorylation of SFKs in Ramos cells. In words: SFK phosphorylation (Tyr 416) by flow cytometry. The class given is cell-based, human. To be noted: Homo sapiens, 0.3 uM, flow cytometry, SFK phosphorylated at Tyr 416, read-out: pSRC % inhibition. The protocol:
Ramos cell lysates from stimulated and unstimulated cells were analyzed for the levels of phosphorylated SRC family members. As described in Example 82 (above), cells were pretreated for 2 hours with an amino naphthyridinones and then stimulated with anti-IgM antibody and H2O2, protein lysates were prepared, quantified and used for Western blotting. A commercially available antibody that detects Src phosphorylated at Tyr 416 (Cell Signalling) and may cross-react with other Src family members such as Lyn, Fyn, Lck, Yes and Hck when phosphorylated at equivalent sites was used for Western blot analysis. The molecular weights of SFK family members are quite similar (in the 55-60 kDa range) and different family members cannot be resolved by the conditions used for the Western blot. […] The procedure can be similarly adapted for flow cytometric analysis as with the PLC-γ2 assay in Example 82. Ramos cells were incubated with Compound 1 for 2 hrs in RPMI media with 5% FBS prior to stimulation stimulated with H2O2/anti-IgM/F(Ab) for 10 minutes. Cells were evaluated by FACS analysis using anti-pSRC antibody and FITC-conjugated goat anti-rabbit secondary antibody following overnight storage at 4° C. in BD perm/wash buffer.
Ramos cells were prepared for flow cytometry analysis as described in example 82, and stained with a commercially available antibody that detects SFK phosphorylated at Tyr 416, followed by Alexa Fluor 488 conjugated secondary antibody. […] Thus amino naphthyridinones are useful in the inhibition of the phosphorylation of SFKs.

Assay [10] addresses T1, Src. To be noted: read-out: Src IC50.
The target in assay [11] is T2, Lyn. To be noted: read-out: Lyn IC50.
The mark [12] stands for this setting: Table 4, DoHH2 cells, read-out: EC50 (Proliferation).

In general, IC50 refers to the concentration that inhibits the measured activity by half. `CCN(CC)CCOc1ccc(Nc2cc3c(cn2)cc(-c2ccccc2)c(=O)n3C(C)C)nc1` [Compound 22, 7-(5-(2-(diethylamino)ethoxy)pyridin-2-ylamino)-1-isopropyl-3-phenyl-1,6-naphthyridin-2(1H)-one]: the EC50 in assay [1] (48 hrs, read-out: DoHH2 EC50) is < 1 µM; in assay [1] (setting [12]), < 1 µM; in assay [2] (48 h), 1 to 10 µM. Further, in [3], the “Percent Apoptosis at 2 uM” value is 21.68%. Further, the “Percent Apoptosis at 5 uM” value in assay [3] is recorded as 25.8%. The “Effect on Cell Cycle” value in assay [4] was “G1 Arrest”. The IC50 is 0.1 to 1 µM in assay [5], 0.1 to 1 µM in assay [6] (Lyn IC50) and < 0.1 µM in [7].
By inhibition is commonly meant the percentage by which the read-out fell short of the control. With `CCN(CC)CCOc1ccc(Nc2cc3c(cn2)cc(-c2ccccc2)c(=O)n3C2CCCC2)nc1` [Compound 23, 1-cyclopentyl-7-(5-(2-(diethylamino)ethoxy)pyridin-2-ylamino)-3-phenyl-1,6-naphthyridin-2(1H)-one], the EC50 in [1] (48 hrs, read-out: DoHH2 EC50) is < 1 µM; in assay [1] (setting [12]) it was < 1 µM; in assay [2] (48 h), 1 to 10 µM. Besides, the inhibition at 0.3 µM in assay [8] stood at 32%; in assay [9] it was 5%. Moreover, in assay [4], the “Effect on Cell Cycle” value is “G1 Arrest”. Also, the IC50 in assay [5] and in assay [6] was 0.1 to 1 µM throughout.
As to `CCN(CC)CCOc1ccc(Nc2cc3c(cn2)cc(-c2ccccc2)c(=O)n3CCOC)nc1` [Compound 24, 7-(5-(2-(diethylamino)ethoxy)pyridin-2-ylamino)-1-(2-methoxyethyl)-3-phenyl-1,6-naphthyridin-2(1H)-one], the EC50 is < 1 µM in assay [1] (48 hrs, read-out: DoHH2 EC50) and 1 to 10 µM in assay [2] (48 hrs). The “Percent Apoptosis at 2 uM” value in [3] was 34.76%. Moreover, the “Percent Apoptosis at 5 uM” value in assay [3] is 46.4%. Further, the IC50 in assay [10], in assay [11] and in assay [7] was < 0.1 µM throughout.
As to `CCN(CC)CCOc1ccc(Nc2cc3c(cn2)cc(C(C)C)c(=O)n3C(C)C)nc1` [Compound 34, 7-[5-(2-Diethylamino-ethoxy)-pyridin-2-ylamino]-1,3-diisopropyl-1H-[1,6]naphthyridin-2-one], in [2] (48 h), the EC50 fell in the range of 1 to 10 µM. In assay [3], the “Percent Apoptosis at 2 uM” value was 19.54% and the “Percent Apoptosis at 5 uM” value was 46.27%. In addition, in assay [10], the 50% inhibitory concentration (IC50) was < 0.1 µM. The IC50 in assay [11] is < 0.1 µM. Further, the “Effect on Cell Cycle” value in [4] was “No Arrest”.
As to `CCn1c(=O)c(-c2ccccc2)cc2cnc(Nc3ccc(N4CCN(C)CC4)cn3)cc21` [Compound 43, 1-Ethyl-7-[5-(4-methyl-piperazin-1-yl)-pyridin-2-ylamino]-3-phenyl-1H-[1,6]naphthyridin-2-one], the EC50 in assay [1] (48 hrs, read-out: DoHH2 EC50) is < 1 µM; in [2] (48 hrs), 1 to 10 µM; in [8] (anti-phospho PLCγ2 (Tyr1217), four concentrations, read-out: Inhibition of phosphorylation of PLC-γ2 EC50), 0.19 µM. Besides, the “Percent Apoptosis at 2 uM” value in [3] is 27.26%. In assay [3], the “Percent Apoptosis at 5 uM” value was 29.38%. Moreover, the IC50 in assay [10] and in assay [11] was < 0.1 µM in each case.
Regarding `CCn1c(=O)c(-c2c(F)cccc2F)cc2cnc(Nc3ccc(F)cn3)cc21` [Compound 75, 3-(2,6-difluorophenyl)-1-ethyl-7-((5-fluoropyridin-2-yl)amino)-1,6-naphthyri-din-2 (1H)-one], the EC50 in assay [1] (48 hrs, read-out: DoHH2 EC50) is < 1 µM; in [1] (setting [12]), < 1 µM; in [2] (48 h) it was 1 to 10 µM. Also, in assay [3], the “Percent Apoptosis at 2 uM” value was 35.66%. For the same compound, the “Percent Apoptosis at 5 uM” value in assay [3] worked out at 39.47%. The IC50 in assay [11] is < 0.1 µM; in assay [5], 0.1 to 1 µM; in assay [7], < 0.1 µM. The “Effect on Cell Cycle” value in assay [4] is given as “G1 Arrest”.
As for `CCN(CC)CCOc1ccc(Nc2cc3c(cn2)cc(-c2ccccc2C(F)(F)F)c(=O)n3CC)nc1` [Compound 107, 7-((5-(2-(diethylamino)ethoxy)pyridin-2-yl)amino)-1-ethyl-3-(2-(trifluoromethyl)phenyl)-1,6-naphthyridin-2(1H)-one], the EC50 was < 1 µM in assay [1] (48 hrs, read-out: DoHH2 EC50) and > 10 µM in assay [2] (48 h). In addition, the inhibition at 0.3 µM in [8] amounted to 48%; in assay [9], 28%. In addition, the IC50 in [10] is < 0.1 µM; in assay [6] (Lyn IC50), 0.1 to 1 µM; in assay [7] it was < 0.1 µM.
As for `CN1CCC(N(C)c2ccc(Nc3cc4c(cn3)cc(-c3c(F)cccc3F)c(=O)n4C)nc2)CC1` [Compound 135, 3-(2,6-difluorophenyl)-1-methyl-7-((5-(methyl(1-methylpiperidin-4-yl)amino)pyridin-2-yl)amino)-1,6-naphthyridin-2(1H)-one], the EC50 in assay [1] (48 hrs, read-out: DoHH2 EC50) was < 1 µM; in assay [2] (48 h) it was 1 to 10 µM. The inhibition at 0.3 µM came out at 82% in [8] and 49% in [9]. Besides, the IC50 in assay [10], in assay [11] and in [7] was < 0.1 µM in each case.
In the case of `CN1CCC(N(C)c2ccc(Nc3cc4c(cn3)cc(-c3c(F)cccc3F)c(=O)n4C3CC3)nc2)CC1` [Compound 136, 1-cyclopropyl-3-(2,6-difluorophenyl)-7-((5-(methyl(1-methylpiperidin-4-yl)amino)pyridin-2-yl)amino)-1,6-naphthyridin-2(1H)-one], the EC50 in [1] (48 hrs, read-out: DoHH2 EC50) is < 1 µM; in assay [2] (48 h), 1 to 10 µM. Also, the inhibition at 0.3 µM came to 85% in [8] and 55% in [9]. Also, the IC50 in [10], in assay [11] and in [7] was < 0.1 µM each time.
Consider `CN1CCC(N(C)c2ccc(Nc3cc4c(cn3)cc(-c3c(F)cccc3F)c(=O)n4C3CCC3)nc2)CC1` [Compound 138, 1-cyclobutyl-3-(2,6-difluorophenyl)-7-((5-(methyl(1-methylpiperidin-4-yl)amino)pyridin-2-yl)amino)-1,6-naphthyridin-2(1H)-one], for which the EC50 was < 1 µM in assay [1] (48 hrs, read-out: DoHH2 EC50) and 1 to 10 µM in [2] (48 h). In addition, the inhibition at 0.3 µM in assay [8] came to 99%; in assay [9], 86%. Moreover, the concentration for half-maximal inhibition (IC50) in assay [10], in [11] and in assay [7] was < 0.1 µM each time.
